Paper PMC10952572, “Improved PIEZO1 agonism through 4‐benzoic acid modification of Yoda1” (British Journal of Pharmacology, 2023)

Molecular target: T1, hPIEZO1 (Homo sapiens, UniProt Q92508)
T1 construct: expressed in transfected cells
Experiment: Pre-treatment with analogue before Yoda1 stimulus, Ca2+ assay in hPIEZO1-TREx cells
Format: cell-based
Settings: hPIEZO1-TREx, 10 μM compound 30 min pretreatment before 2 μM Yoda1
Experimental: HEK 293‐TREx cells and their stably transfected derivatives or transiently transfected HEK 293 or HeLa cells were seeded at a density of 7.5 × 10^4 cells per well into poly‐D‐lysine‐coated 96‐well plates. The plates were either commercially pre‐coated with poly‐D‐lysine (Greiner Bio‐One #655946) or (Greiner Bio‐One #655090) were coated in‐house with 35 μl of a 10 μg·ml^−1 poly‐D‐lysine (Bio‐Techne, Cultrex # 3439‐100‐01) in sterile deionised water per well for at least 24 h and rinsed three times with 100 μl per well sterile D‐PBS before addition of cells. HUVECs were seeded into tissue culture‐treated 96‐well plates (Greiner Bio‐One #655090) at a density of either 2.5 × 10^4 cells 24 h before experimentation or 1.25 × 10^4 cells 48 h before experimentation. Cells were incubated with 2 μM Fura‐2‐AM (Molecular Probes™) in the presence of 0.01% (wt./vol.) pluronic F127 (Sigma‐Aldrich #P2443) in standard bath solution (SBS) for 1 h at 37°C. Cells were washed with SBS for 30 min at room temperature. Alternatively, if inhibitors were being tested, these were added at this time, immediately following a wash in SBS. (−)‐Englerin A (Akbulut et al., [2015]) was used in SBS containing 0.01% pluronic acid as a dispersing agent to minimise aggregation of compound. Unless otherwise stated, the final concentration of DMSO was 0.2% (vol./vol). Working 2000× stock solutions of test compounds were freshly made in DMSO and diluted 1000‐fold in SBS during the 30 min SBS wash/inhibitor pre‐incubation period to obtain 2× solutions for injection. When testing the highest concentration of Yoda1, KC159 and KC289 (30 μM), the final DMSO concentration was 0.6% (vol./vol.). Measurements were made at room temperature on a 96‐well fluorescence plate reader (FlexStation 3, Molecular Devices, Sunnyvale, CA, USA) controlled by SoftMax Pro software v7.0.3. Recipient wells containing 80 μl SBS/0.2% (vol./vol.) DMSO vehicle or inhibitor compound received 80 μl 2× compound at an injection rate of 1 μl·s^−1, and the pipette introduced liquids from a height setting of 70 μl. No trituration was performed. For recordings using Fura‐2, the change in intracellular Ca was indicated as the ratio of Fura‐2 emission (510 nm) intensities at 340 and 380 nm excitation. Photomultipliers were set to medium sensitivity. SBS contained 130 mM NaCl, 5 mM KCl, 8 mM D‐glucose, 10 mM HEPES, 1.2 mM MgCl2 and 1.5 mM CaCl2, and the pH was adjusted to 7.4 with NaOH. The solution was filtered through a 0.2 μm bottle‐top filter prior to use and handled aseptically thereafter.
In view of the effect of Dooku1 described above, we tested if there are inhibitory actions of the new Yoda1 analogues by pre‐treating cells at 10 μM for 30 min prior to adding 2 μM Yoda1 (Figures 9 and S9, SI 1). All except KC157 and KC161 inhibited the action of Yoda1 on hPIEZO1 channels (Figures 9a and S9, SI 1). […] KC159 and KC289 were agonists, and so they may inhibit the effect of Yoda1 simply by pre‐activating the channels. KC158, KC161 and KC162 are also agonists of mPIEZO1 channels (Figure 3). […] Only the 2‐benzoic acid analogue (KC157) lacks agonist or antagonist properties.

T1 sequence (Q92508 whole entry): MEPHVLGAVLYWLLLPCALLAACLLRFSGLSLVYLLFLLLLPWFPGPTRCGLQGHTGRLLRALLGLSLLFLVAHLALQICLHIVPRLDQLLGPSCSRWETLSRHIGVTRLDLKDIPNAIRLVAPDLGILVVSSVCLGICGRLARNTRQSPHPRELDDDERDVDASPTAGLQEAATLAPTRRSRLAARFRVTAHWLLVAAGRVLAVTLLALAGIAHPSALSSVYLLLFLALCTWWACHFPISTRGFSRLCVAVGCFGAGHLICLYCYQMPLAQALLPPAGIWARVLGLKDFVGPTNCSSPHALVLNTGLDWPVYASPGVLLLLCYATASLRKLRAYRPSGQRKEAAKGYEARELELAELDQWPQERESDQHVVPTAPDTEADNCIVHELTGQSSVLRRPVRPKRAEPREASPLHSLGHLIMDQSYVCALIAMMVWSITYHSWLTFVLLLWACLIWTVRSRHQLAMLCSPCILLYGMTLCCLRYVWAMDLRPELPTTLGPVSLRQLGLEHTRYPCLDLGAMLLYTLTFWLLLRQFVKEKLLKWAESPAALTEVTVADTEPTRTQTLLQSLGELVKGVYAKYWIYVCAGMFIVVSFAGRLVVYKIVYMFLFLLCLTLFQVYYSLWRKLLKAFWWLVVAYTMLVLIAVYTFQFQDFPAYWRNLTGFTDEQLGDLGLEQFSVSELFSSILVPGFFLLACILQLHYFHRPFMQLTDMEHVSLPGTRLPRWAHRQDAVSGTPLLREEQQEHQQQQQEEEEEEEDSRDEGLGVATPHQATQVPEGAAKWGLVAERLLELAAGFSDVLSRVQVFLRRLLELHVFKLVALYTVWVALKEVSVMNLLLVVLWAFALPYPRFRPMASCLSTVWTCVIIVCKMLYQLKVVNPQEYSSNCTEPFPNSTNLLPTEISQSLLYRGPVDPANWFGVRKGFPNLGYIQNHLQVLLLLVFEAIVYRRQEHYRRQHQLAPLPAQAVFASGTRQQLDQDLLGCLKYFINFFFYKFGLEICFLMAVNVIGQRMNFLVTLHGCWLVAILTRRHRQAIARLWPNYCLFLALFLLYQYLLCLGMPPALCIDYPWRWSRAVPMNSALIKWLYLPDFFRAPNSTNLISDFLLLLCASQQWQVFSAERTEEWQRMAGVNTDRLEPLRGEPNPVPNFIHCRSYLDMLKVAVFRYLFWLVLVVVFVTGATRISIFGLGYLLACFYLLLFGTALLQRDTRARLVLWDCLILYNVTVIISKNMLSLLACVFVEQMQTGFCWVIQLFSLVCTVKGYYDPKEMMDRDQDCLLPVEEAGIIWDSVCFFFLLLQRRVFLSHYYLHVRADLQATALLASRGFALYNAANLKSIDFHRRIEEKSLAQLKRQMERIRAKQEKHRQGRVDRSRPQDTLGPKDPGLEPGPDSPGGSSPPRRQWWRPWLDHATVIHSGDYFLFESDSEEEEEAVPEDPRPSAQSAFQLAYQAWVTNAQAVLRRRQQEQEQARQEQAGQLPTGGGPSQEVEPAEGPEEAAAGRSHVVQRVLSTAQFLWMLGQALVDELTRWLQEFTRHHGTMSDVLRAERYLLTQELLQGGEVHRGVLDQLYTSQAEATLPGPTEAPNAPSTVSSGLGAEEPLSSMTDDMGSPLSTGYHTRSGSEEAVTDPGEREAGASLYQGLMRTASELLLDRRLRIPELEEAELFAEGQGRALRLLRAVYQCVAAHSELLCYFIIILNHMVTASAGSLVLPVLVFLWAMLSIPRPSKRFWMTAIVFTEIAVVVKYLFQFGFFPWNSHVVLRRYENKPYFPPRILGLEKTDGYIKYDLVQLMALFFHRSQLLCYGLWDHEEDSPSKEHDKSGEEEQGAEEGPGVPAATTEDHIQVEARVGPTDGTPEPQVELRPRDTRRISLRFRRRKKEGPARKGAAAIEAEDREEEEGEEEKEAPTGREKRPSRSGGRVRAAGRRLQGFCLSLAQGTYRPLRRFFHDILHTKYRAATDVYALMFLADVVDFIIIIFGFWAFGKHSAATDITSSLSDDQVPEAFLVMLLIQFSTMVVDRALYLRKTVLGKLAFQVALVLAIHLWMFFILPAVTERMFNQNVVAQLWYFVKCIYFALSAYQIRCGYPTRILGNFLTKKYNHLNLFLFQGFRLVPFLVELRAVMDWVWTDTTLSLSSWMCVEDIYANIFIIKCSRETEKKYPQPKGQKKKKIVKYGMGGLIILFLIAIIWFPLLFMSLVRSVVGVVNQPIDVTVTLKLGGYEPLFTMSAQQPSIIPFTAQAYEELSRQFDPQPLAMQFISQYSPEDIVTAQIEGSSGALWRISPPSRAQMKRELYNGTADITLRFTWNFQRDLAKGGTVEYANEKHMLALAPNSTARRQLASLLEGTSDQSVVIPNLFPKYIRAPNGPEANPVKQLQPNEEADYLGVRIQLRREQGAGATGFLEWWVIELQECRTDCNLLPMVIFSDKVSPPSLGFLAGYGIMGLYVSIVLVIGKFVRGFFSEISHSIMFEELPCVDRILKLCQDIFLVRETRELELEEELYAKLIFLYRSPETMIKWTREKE

**Q.** For `O=C(O)c1ccc(-c2nnc(SCc3c(Cl)cccc3Cl)s2)cc1` [KC159], which “2 μM Yoda1-evoked peak ΔCa2+i (ΔF340/380), median fold difference compared to DMSO pretreatment” value is on record?
**A.** −1.7 fold

**Q.** Which “2 μM Yoda1-evoked peak ΔCa2+i (ΔF340/380), median fold difference compared to DMSO pretreatment” value does the source give for `O=C([O-])c1ccc(-c2nnc(SCc3c(Cl)cccc3Cl)s2)cc1.[K+]` [KC289] here?
**A.** −2.5 fold
